Results on 16 molecules are retold here after ChEMBL document CHEMBL5604063, “ASAP - DENV-2 NS2B-NS3 protease fluorescence dose response” (2024).

Values joined by “and” are separate entries in the source; they are usually repeats but may differ in a detail not shown here. Equal values may be shown once.

Experiment [1] has as its target T1, Genome polyprotein (dengue virus type 2, UniProt P29990). The experiment is classed as functional, Thailand/16681/1984.
Experiment [2] deals with T1, Genome polyprotein. The class given is functional, Thailand/16681/1984. The source holds these as a separate data set.

T1 sequence (P29990 1346-1475 limits assumed): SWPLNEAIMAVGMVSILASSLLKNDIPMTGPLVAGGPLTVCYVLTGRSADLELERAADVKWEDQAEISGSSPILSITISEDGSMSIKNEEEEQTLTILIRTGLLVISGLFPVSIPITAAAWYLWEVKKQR
T1 sequence (P29990 1476-2093 limits assumed): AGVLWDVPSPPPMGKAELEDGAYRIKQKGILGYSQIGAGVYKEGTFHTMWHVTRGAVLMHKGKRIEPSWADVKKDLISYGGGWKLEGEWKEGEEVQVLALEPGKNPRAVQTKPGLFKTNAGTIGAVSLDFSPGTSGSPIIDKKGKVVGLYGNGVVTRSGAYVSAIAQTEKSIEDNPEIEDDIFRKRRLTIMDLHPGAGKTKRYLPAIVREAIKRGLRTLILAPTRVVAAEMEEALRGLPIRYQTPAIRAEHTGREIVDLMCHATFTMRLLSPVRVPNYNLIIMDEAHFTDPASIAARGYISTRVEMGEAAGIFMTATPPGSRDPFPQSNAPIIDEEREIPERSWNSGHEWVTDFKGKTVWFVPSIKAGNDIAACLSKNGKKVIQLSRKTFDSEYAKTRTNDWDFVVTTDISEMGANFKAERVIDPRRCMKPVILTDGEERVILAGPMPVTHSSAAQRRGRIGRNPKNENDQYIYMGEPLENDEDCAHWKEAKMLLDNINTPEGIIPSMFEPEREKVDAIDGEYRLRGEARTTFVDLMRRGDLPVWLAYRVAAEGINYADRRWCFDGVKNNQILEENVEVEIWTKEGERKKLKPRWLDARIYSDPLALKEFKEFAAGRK

`Cc1c(C(=O)Nc2cccc(CCN)c2)cc(C2CC2)n1C`: the IC50 (commonly the concentration that gives 50% inhibition) was more than 99.5 µM in experiment [1] and more than 100 µM in experiment [2].
`O=C(Nc1ccc2c(c1)CNC2)c1nc(Cl)nc2[nH]ccc12`: the results for the IC50 in experiment [1] and in experiment [2] were more than 99.5 µM and more than 100 µM, respectively.
For the molecule `NCc1nc(-c2ccc(NC(=O)c3cc(Cl)cc(NC(=O)OCc4ccccc4)c3)cc2)n[nH]1`, the values for the IC50 in experiment [1] and in experiment [2] were 48.2 µM and more than 100 µM, respectively.
Taken in the same sequence, the figures for `CS(=O)(=O)NC(=O)c1cc(CN)cc(NC(=O)c2cc(Cl)cc(NC(=O)OCc3ccccc3)c2)c1` were more than 99.5 µM and more than 100 µM.
In the case of `O=C(Nc1ccc2c(c1)CNC2)c1cc2ncccc2s1`, the IC50 is more than 99.5 µM in experiment [1] and more than 100 µM in experiment [2].
For the molecule `CC1(C)C(=O)Nc2ccc(C(=O)Nc3ccc4c(c3)CNC4)cc21`, the IC50 is more than 99.5 µM in experiment [1] and more than 100 µM in experiment [2].
On to `CC(C)c1nccn1C[C@H]1CCCN1C(=O)Nc1ccc2c(c1)CNC2`, for which the half-inhibitory concentration (IC50) in experiment [1] is more than 99.5 µM; in experiment [2], more than 100 µM.
Taken in the same sequence, the figures for `O=C(Nc1ccc2c(c1)CNC2)c1nc(C(F)(F)F)cs1` were more than 99.5 µM and more than 100 µM.
For `O=C(Nc1cc2c(c(C3=CCS(=O)(=O)CC3)c1)CNC2)c1cc(F)cc2[nH]ncc12`, the half-maximal inhibitory concentration (IC50) in experiment [1] was 41.1 µM and 29.7 µM; in experiment [2], 34.6 µM and 46.6 µM.
As for `O=C(NCc1ccc2c(c1)CNC2)c1cc(Cl)cc2[nH]ncc12`, the IC50 in experiment [1] is more than 99.5 µM; in experiment [2] it was more than 100 µM.
As for `COc1cc(NC(=O)OCc2ccccc2)cc(C(=O)Nc2cccc(CN)c2)c1OC`, the IC50 was more than 99.5 µM in experiment [1] and more than 100 µM in experiment [2].
In the case of `C=CC[C@H](Nc1ccc(-c2nn[nH]n2)cc1)c1cc(Cl)cc(NC(=O)OCc2ccccc2)c1`, the IC50 was 6.6 µM in experiment [1]; 5.41 µM and 5.49 µM in experiment [2].
Regarding `O=C(Nc1cc(Cl)cc(C(=O)NCCCc2nnn[nH]2)c1)OCc1ccccc1`, the values for the IC50 in experiment [1] and in experiment [2] were more than 99.5 µM and more than 100 µM, respectively.
Taken in the same sequence, the figures for `Cc1[nH]nc2c1CC[C@H](NC(=O)c1cccc3c1CC(=O)N3)C2` were more than 99.5 µM and more than 100 µM.
For `O=C1OCc2ccc(NC(=O)[C@H]3CCNC3)cc21`, in that order: more than 99.5 µM and more than 100 µM.
Consider `N#Cc1cc(Cl)cc([C@H](C#N)Nc2ccc3c(c2)CNC3)c1`, for which the results for the half-maximal inhibitory concentration (IC50) in experiment [1] and in experiment [2] were more than 99.5 µM and more than 100 µM, respectively.
